The source of these data is ChEMBL document CHEMBL3217602, “20-O-IngenolEZ, a catalytic topoisomerase II inhibitor, specifically inhibits cell proliferation and induces double-strand DNA breaks in BLM-/- cells” (2011).

The source made the active and inactive calls. The rule behind the calls is not given here.

For experiment [1], the system named is DT40. Put plainly: (§1) Inhibition of chicken wild type DT40 cell proliferation at 200 uM after 2 days by MTT assay. Type of experiment: functional. Conditions: Gallus gallus. For orientation: Tetrazolium dyes change colour on reduction, which living cells bring about.
For experiment [2], the system named is DT40. Put plainly: Inhibition of chicken BLM-/- DT40 cell proliferation at 200 uM after 2 days by MTT assay. Format: functional, cell-based. The conditions noted are these: Gallus gallus.
For experiment [3], the system named is DT40. The experiment in a line: Inhibition of chicken WRN-/- DT40 cell proliferation at 200 uM after 2 days by MTT assay. Format: functional, cell-based. The conditions noted are these: Gallus gallus.
The subject of experiment [4] is DT40. Put plainly: Induction of double-strand DNA breaks in chicken BLM-/- DT40 cell nuclear fraction assessed as gamma-H2AX phosphorylation at 200 uM after 24 hrs by immunoblot analysis. Type of experiment: functional, cell-based. The conditions noted are these: Gallus gallus.
Experiment [5] in a line: as §1. Format: functional. Conditions: Gallus gallus, DT40, 48 h.
Experiment [6] concerns DT40. The experiment in a line: Inhibition of chicken WRN-/- DT40 cell proliferation at 2 to 100 uM after 2 days by MTT assay. Format: functional, cell-based. The conditions noted are these: Gallus gallus.
Experiment [7] has as its system DT40. The experiment in a line: Inhibition of chicken BLM-/- DT40 cell proliferation at 100 uM after 2 days by MTT assay. Type of experiment: functional, cell-based. The conditions noted are these: Gallus gallus.
The test system of experiment [8] is DT40. Put plainly: Inhibition of chicken BLM-/- DT40 cell proliferation at 2 to 60 uM after 2 days by MTT assay. Type of experiment: functional, cell-based. Conditions: Gallus gallus.
Experiment [9] concerns DT40. The experiment in a line: Inhibition of chicken wild type DT40 cell proliferation at 2 to 100 uM after 2 days by MTT assay. Type of experiment: functional, cell-based. Conditions: Gallus gallus.
Experiment [10] concerns DT40. The experiment in a line: Induction of apoptosis in chicken BLM-/- DT40 cells at 200 uM after 24 hrs by DAPI staining based immunofluorescence assay. Type of experiment: functional, cell-based. Conditions: Gallus gallus.
Experiment [11] relates to DT40. The experiment in a line: Induction of double-strand DNA breaks in chicken BLM-/- DT40 cell nuclear fraction assessed as gamma-H2AX phosphorylation at 0.9 uM after 24 hrs by immunoblot analysis. Type of experiment: functional, cell-based. Conditions: Gallus gallus. In general terms: A western blot detects proteins with antibodies after separation by electrophoresis.

The nature of experiment [12]: Induction of apoptosis in chicken BLM-/- DT40 cells at 0.9 uM after 24 hrs by DAPI staining based immunofluorescence assay. Type of experiment: functional, Gallus gallus.

As a reminder, the inhibition is the percentage by which the read-out fell short of the control. As for `C[C@H]([C@H](C)N1CC(=O)NC(=O)C1)N1CC(=O)NC(=O)C1`, the inhibition result with DT40 [1], in the experiment with DT40 [2] and in the experiment on DT40 [3] was “Active” throughout.

As for `CCCCC/C=C\C=C\C(=O)OCC1=C[C@@H]2C(=O)[C@]3(C=C(C)[C@H](O)[C@@]3(O)[C@@H]1O)[C@H](C)C[C@@H]1[C@H]2C1(C)C`, the outcome in the experiment with DT40 [4] and with DT40 [10] was Active. The same molecule had an inhibition at 200 µM in [5] of 50%. For the same molecule, the inhibition result in the experiment with DT40 [6], with DT40 [3], with DT40 [8] and in the experiment with DT40 [9] was “inactive” each time. Also, the inhibition entry in the experiment on DT40 [2] and in the experiment with DT40 [7] was “Active” each time.

Take `COc1cccc2c1C(=O)c1c(O)c3c(c(O)c1C2=O)C[C@@](O)(C(=O)CO)C[C@@H]3O[C@H]1C[C@H](N)[C@H](O)[C@H](C)O1` [DOXORUBICIN]: in the experiment on DT40 [11], the result was Active. In addition, the Activity in experiment [12] came to 60%.
